The values that follow come from patent publication US9205070B2, “Chelation suppository for improved drug delivery” (APPLIED BIORESEARCH, INC., priority 2013, dated 2015).

Read-outs that look alike come from different tables or passages of the source.

For data set [1] the following is noted: aqueous composition containing MBK, pH 7.0 and pH 9.6, after 5 hours. The method, then:
Cells in the digestive track, such as CACO-2 cells are typically used to model absorption in the small intestine. CACO-2 cells, developed by the Sloan-Kettering Institute from human epithelial colorectal adenocarcinoma cells, are widely used to predict drug absorption. […] permeability assay (PAMPA) uses an artificial cell membrane to model drug permeability. In either test, the drug is dissolved in an aqueous solution mimicking the target gastric fluid. The fluid is contacted with the membrane, and the passage of the drug through the membrane over a period of time is used to assess permeability.
PAMPA measures how quickly the drug can exit a water-solvated environment and pass through a cell membrane. Since most drugs are hydrophobic, it is expected that there will be significant absorption by the cells lining the digestive tract.

The conditions of data set [2]: rat. From the text:
The conclusive measure of bioavailability is to measure the drug blood levels (or levels in some other body fluid) after administration to human test subjects.
See Rabau M Y, Baratz M, Rozen P, “Na2 ethylenediaminetetraacetic acid retention enema in dogs. Biochemical and histological response”.

For data set [3] the following is noted: dogs, aqueous solution, rectal; cited from earlier work.
The mark [4] stands for this setting: Group C, rectal suppository with MBK excipient, mean.

With `O=C([O-])CN(CCN(CC(=O)[O-])CC(=O)[O-])CC(=O)[O-].[Ca+2].[Na+].[Na+]` [CaNa2EDTA, calcium disodium ethylenediaminetetraacetate], in data set [1], the “passage of drug through the artificial cell membrane” value is “no drug was found to have passed through the artificial cell membrane”. Moreover, in data set [2] (Group B, intravenous, mean), the AUC came out at 1860 ng·h/mL, the “AUC Inf” value is 1910 ng·h/mL, the Cmax came out at 2070 ng/mL and the Halflife worked out at 90 min. Moreover, the time of peak concentration (Tmax) in data set [2] (Group B, intravenous, mean) amounted to 4.98 min. In data set [2] (setting [4]), the exposure (AUC) was 105800 ng·h/mL, the “AUC Inf” value came to 307300 ng·h/mL and the highest concentration (Cmax) was 30600 ng/mL. The drug absorbed entry in data set [2] (suppository with MBK as the excipient, within eight hours) is “over 36.3%”.

In the case of `O=C(O)CN(CCN(CC(=O)O)CC(=O)O)CC(=O)O` [EDTA], the absorption in data set [3] was approximately 13%.

For orientation: AUC means the area under the concentration-time curve, a measure of exposure. The term Cmax denotes the highest concentration seen after dosing. The Tmax is the time from dosing to the highest level.
